Experimental findings from PMC12956279 (2026) are described below.

Test in all cases: fluorescence titration (light-up), quadratic fit
What all share (details): 100 mM KCl, 1 mM MgCl2; 40 mM HEPES pH 7.4 (7.5 in Results), room temperature; 1 µM dye, DNA varied

In test [1] the test system is 4LE-v4 (DNA, aptamer) TCCTTCGCACAGCACACCTGCCGTATAGCTCTGAATCAAGGATTTTAGGGAGGCGATTAGTAGGGATGATGCGGCAGTGGGCTTCGCAGAACAGTGTTTATTCTGCGAGGGGACTATCCTCCTGCC
The test system of test [2] is 8LE-v4 (DNA, aptamer) TCCTTCGCACAGCACACCTGCCGTATAGCTCTGAATCAAGGATTTTAGGGAGGCGATGTCTTAGTAGGGATGATGCGGCAGTGGGCTTCGCAGAACAGTGTTTATTCTGCGAGGGGACTAAGACTCCTCCTGCC
Test [3] deals with 11LE (11LE-v4) (DNA, aptamer) TCCTTCGCACAGCACACCTGCCGTATAGCTCTGAATCAAGGATTTTAGGGAGGCGATGGTGTCTTAGTAGGGATGATGCGGCAGTGGGCTTCGCAGAACAGTGTTTATTCTGCGAGGGGACTAAGACTCCTCCTCCTGCC
In test [4] the test system is FLE (FLE-v4) (DNA, aptamer) TCCTTCGCACAGCACACCTGCCGTATAGCTCTGAATCAAGGATTTTAGGGAGGCGATAACGTGCTCAAGGTGTCTTAGTAGGGATGATGCGGCAGTGGGCTTCGCAGAACAGTGTTTATTCTGCGAGGGGACTAAGACTCCTTCAGCAAGTTAAGCTCCTCCTGCC

On to `CC1=N/C(=C\c2cc(F)c(O)c(F)c2)C(=O)N1CC(F)(F)F`, for which the KD was 6 (4.93, 7.18, 95% CI) µM in test [1]; 0.04 (0.01, 0.12, 95% CI) µM in test [2]; 0.01 (0.01, 0.07, 95% CI) µM in test [3]; 0.07 (0.01, 0.16, 95% CI) µM in test [4].
